# Reference: ChEMBL document CHEMBL4130529, “From PIM1 to PI3Kδ via GSK3β: Target Hopping through the Kinome” (ACS Med Chem Lett, 2017)
# Columns and labels:
# [1] = molecular target: T1, Glycogen synthase kinase-3 beta (Homo sapiens, UniProt P49841); experiment: Inhibition of GSK3beta (unknown origin) after 1 hr by fluorescence polarization assay
# [2] = molecular target: Serine/threonine-protein kinase pim-1 (Homo sapiens, UniProt P11309); experiment: Inhibition of PIM1 (unknown origin) using TAMRA-ERMRPRKRQGSVRRRV-NH2 as substrate pretreated for 30 mins followed by substrate addition measured after 1 hr by IMAP assay
# Sequence of Serine/threonine-protein kinase pim-1 (P11309 whole entry, canonical isoform): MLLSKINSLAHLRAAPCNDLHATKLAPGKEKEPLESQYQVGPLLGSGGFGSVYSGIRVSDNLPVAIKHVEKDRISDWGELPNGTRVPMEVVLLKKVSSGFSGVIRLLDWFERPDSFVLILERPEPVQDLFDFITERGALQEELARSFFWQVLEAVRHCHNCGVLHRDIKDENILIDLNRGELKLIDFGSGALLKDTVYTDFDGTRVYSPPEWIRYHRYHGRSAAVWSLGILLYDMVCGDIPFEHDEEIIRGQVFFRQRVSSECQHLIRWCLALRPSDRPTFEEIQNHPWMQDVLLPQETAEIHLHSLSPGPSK
# [3] = molecular target: Phosphatidylinositol 4,5-bisphosphate 3-kinase catalytic subunit gamma isoform (Homo sapiens, UniProt P48736); experiment: Inhibition of PI3Kgamma (unknown origin) using PIP2 as substrate pretreated for 15 mins followed by substrate addition measured after 1 hr
# Sequence of Phosphatidylinositol 4,5-bisphosphate 3-kinase catalytic subunit gamma isoform (P48736 whole entry, canonical isoform): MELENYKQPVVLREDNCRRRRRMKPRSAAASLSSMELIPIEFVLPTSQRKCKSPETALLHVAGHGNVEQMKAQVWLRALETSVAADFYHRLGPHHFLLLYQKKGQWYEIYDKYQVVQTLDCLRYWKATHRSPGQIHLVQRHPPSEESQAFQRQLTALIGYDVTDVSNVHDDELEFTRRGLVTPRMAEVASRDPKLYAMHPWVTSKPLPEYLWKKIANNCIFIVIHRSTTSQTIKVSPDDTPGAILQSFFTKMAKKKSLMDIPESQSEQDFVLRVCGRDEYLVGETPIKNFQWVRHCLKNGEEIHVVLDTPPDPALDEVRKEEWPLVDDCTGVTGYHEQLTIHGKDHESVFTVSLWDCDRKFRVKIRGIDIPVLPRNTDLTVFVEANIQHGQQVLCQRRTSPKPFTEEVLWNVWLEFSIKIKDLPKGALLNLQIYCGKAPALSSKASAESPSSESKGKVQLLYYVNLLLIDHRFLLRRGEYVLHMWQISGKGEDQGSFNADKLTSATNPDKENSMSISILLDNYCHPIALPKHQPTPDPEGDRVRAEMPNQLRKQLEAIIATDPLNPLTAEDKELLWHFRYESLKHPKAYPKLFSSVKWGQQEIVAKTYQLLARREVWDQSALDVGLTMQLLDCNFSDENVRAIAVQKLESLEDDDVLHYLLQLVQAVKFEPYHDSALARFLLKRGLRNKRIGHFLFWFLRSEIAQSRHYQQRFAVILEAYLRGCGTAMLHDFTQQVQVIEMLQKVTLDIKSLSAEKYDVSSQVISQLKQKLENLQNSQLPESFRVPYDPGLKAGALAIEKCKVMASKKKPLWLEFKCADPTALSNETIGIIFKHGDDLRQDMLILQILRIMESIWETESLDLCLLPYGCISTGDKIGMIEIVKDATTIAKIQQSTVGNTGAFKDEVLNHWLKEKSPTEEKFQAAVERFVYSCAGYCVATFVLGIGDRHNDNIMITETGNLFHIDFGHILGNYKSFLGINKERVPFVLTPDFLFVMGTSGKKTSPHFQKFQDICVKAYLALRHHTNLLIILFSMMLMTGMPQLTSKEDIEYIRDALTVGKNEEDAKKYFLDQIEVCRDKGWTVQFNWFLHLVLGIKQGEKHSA
# [4] = molecular target: Phosphatidylinositol 4,5-bisphosphate 3-kinase catalytic subunit alpha isoform (Homo sapiens, UniProt P42336); experiment: Inhibition of PI3Kalpha (unknown origin) using PIP2 as substrate pretreated for 15 mins followed by substrate addition measured after 1 hr
# Sequence of Phosphatidylinositol 4,5-bisphosphate 3-kinase catalytic subunit alpha isoform (P42336 whole entry, canonical isoform): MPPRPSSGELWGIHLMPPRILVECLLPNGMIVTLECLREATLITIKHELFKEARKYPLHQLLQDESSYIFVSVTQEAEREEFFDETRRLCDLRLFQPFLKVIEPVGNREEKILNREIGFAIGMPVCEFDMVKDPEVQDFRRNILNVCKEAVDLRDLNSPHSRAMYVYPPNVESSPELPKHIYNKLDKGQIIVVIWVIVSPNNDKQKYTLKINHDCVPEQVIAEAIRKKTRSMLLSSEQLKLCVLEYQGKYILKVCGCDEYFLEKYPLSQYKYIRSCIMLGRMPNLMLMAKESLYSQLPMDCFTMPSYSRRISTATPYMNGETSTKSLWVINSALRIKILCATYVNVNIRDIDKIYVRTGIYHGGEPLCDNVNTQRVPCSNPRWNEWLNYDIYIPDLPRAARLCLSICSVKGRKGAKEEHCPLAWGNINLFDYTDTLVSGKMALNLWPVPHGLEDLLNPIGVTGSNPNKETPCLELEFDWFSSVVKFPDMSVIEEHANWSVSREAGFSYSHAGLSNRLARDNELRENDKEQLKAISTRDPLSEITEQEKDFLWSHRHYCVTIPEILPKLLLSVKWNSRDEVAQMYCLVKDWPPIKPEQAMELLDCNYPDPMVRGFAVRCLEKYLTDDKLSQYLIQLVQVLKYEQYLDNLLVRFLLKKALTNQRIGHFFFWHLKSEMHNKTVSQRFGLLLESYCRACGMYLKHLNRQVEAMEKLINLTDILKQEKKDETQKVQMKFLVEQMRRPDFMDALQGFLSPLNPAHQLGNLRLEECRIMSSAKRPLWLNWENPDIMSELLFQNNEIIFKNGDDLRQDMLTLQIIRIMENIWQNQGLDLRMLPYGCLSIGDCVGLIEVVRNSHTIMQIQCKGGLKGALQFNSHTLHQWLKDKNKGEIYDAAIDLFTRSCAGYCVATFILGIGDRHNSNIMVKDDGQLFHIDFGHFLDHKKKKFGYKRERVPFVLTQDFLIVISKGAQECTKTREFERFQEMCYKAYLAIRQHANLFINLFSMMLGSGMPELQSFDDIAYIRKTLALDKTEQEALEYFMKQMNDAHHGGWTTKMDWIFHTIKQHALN
# [5] = molecular target: T2, Phosphatidylinositol 4,5-bisphosphate 3-kinase catalytic subunit delta isoform (Homo sapiens, UniProt O00329); experiment: Inhibition of PI3Kdelta (unknown origin) using PIP2 as substrate pretreated for 15 mins followed by substrate addition measured after 1 hr
# T2 sequence (O00329 whole entry): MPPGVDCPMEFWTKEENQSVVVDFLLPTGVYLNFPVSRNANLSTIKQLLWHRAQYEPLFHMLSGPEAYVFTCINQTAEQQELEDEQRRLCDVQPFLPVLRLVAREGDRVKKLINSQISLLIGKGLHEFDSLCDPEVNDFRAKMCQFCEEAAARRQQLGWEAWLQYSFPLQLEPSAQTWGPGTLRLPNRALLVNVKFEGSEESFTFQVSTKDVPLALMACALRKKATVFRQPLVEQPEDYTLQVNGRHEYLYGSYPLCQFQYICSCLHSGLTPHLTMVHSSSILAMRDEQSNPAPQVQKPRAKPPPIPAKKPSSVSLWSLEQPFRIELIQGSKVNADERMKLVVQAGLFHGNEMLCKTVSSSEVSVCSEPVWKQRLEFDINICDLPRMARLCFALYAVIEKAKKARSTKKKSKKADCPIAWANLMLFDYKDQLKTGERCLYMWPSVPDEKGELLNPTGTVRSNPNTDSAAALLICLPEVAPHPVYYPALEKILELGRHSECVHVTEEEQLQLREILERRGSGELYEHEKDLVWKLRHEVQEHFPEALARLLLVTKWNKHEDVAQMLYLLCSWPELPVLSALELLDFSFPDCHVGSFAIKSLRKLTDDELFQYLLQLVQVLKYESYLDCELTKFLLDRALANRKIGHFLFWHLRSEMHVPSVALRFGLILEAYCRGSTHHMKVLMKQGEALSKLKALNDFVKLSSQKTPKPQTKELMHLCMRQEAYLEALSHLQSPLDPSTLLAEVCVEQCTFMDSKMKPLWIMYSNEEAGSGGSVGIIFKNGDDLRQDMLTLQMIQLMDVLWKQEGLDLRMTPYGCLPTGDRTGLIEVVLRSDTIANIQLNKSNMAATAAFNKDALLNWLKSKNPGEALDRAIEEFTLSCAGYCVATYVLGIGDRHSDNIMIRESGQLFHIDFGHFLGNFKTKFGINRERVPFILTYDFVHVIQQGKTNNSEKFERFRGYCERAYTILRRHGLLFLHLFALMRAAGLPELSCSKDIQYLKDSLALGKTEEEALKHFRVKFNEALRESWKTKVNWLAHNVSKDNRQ
# [6] = molecular target: Phosphatidylinositol 4,5-bisphosphate 3-kinase catalytic subunit beta isoform (Homo sapiens, UniProt P42338); experiment: Inhibition of PI3Kbeta (unknown origin) using PIP2 as substrate pretreated for 15 mins followed by substrate addition measured after 1 hr
# Sequence of Phosphatidylinositol 4,5-bisphosphate 3-kinase catalytic subunit beta isoform (P42338 whole entry, canonical isoform): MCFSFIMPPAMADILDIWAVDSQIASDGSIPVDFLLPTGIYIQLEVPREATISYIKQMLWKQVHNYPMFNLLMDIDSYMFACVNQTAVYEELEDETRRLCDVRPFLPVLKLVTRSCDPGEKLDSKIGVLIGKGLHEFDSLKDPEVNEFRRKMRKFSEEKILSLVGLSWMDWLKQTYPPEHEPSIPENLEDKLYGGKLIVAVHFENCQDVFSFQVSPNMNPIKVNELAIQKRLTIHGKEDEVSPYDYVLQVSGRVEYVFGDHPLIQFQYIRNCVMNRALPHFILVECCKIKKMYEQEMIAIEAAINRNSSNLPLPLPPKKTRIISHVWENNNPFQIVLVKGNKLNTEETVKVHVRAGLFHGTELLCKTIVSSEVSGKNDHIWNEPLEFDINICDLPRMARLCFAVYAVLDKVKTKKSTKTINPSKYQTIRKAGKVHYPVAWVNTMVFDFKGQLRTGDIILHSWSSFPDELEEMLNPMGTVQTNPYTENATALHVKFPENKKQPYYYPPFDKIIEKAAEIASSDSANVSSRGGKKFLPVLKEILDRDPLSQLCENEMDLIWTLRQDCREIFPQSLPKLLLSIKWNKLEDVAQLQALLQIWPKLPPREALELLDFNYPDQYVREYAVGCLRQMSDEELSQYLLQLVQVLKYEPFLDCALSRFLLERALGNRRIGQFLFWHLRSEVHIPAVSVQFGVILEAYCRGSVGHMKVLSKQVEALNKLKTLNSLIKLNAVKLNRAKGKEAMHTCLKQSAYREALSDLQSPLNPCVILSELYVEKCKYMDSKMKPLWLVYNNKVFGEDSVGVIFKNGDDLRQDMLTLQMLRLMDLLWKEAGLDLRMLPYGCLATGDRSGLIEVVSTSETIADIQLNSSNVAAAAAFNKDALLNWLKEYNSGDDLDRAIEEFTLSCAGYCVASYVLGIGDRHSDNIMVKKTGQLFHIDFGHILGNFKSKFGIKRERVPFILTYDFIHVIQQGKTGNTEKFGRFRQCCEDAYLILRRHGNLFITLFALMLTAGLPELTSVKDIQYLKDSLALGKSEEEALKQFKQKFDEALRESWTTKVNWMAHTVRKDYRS
# [7] = molecular target: T1, Glycogen synthase kinase-3 beta; experiment: Inhibition of human GSK3beta using YRRAAVPPSPSLSRHSSPHQ(pS)EDEEE as substrate in presence of [gamma-33P]-ATP
# Homo sapiens = organism: Homo sapiens; experiment: Selectivity ratio of pIC50 for ALK5 (unknown origin) to pIC50 for PI3Kdelta (unknown origin)
# T1 sequence (P49841 whole entry): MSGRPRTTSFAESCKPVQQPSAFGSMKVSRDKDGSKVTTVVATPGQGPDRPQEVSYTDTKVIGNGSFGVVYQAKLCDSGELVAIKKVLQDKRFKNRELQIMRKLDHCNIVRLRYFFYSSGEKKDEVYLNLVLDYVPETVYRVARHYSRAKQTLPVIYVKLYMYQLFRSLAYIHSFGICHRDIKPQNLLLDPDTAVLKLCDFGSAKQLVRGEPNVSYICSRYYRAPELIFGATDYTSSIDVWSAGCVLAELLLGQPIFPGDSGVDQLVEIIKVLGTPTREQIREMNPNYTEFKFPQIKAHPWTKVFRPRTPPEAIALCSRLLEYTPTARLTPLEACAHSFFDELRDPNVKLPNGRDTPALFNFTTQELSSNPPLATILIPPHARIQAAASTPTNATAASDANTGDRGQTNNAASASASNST
IC50 [1] [µM],IC50 [2] [µM],IC50 [3] [µM],IC50 [4] [µM],IC50 [5] [µM],IC50 [6] [µM],SMILES,IC50 [7] [µM],Ratio IC50 (Homo sapiens)
1.58,2,7.94,25.1,1.58,31.6,O=C(Nc1cc(-c2cccc(O)c2)cc2[nH]ncc12)c1ccccn1,–,–
> 25.1,–,15.8,25.1,3.16,12.6,O=C(Nc1cc(-c2ccc3cc[nH]c3c2)cc2[nH]ncc12)c1ccccn1,–,–
31.6,15.8,25.1,25.1,20,> 25.1,O=C(Nc1cc(-c2ccccc2)cc2[nH]ncc12)C1CC1,–,–
7.94,15.8,> 25.1,> 25.1,1,25.1,O=C(Nc1cc(-c2cccc3[nH]ccc23)cc2[nH]ncc12)C1CC1,–,–
0.631,0.316,> 25.1,25.1,6.31,25.1,O=C(Nc1cc(-c2ccc(O)cc2)cc2[nH]ncc12)C1CC1,–,–
1.26,2.51,7.94,20,3.98,20,O=C(Nc1cc(-c2cccc(O)c2)cc2[nH]ncc12)C1CC1,–,–
–,–,> 25.1,> 25.1,25.1,> 25.1,O=C(Nc1n[nH]c2cc(-c3ccc(O)cc3)ccc12)C1CC1,–,–

SMILES,IC50 [1] [µM],IC50 [2] [µM],IC50 [3] [µM],IC50 [4] [µM],IC50 [5] [µM],IC50 [6] [µM],IC50 [7] [µM],Ratio IC50 (Homo sapiens)
O=C(Nc1cc(-c2ccc(O)cc2)cc2[nH]ncc12)c1ccccn1,–,0.126,5.01,> 25.1,0.501,> 25.1,1.58,–
O=C(Nc1cc(-c2cccc3[nH]ccc23)cc2[nH]ncc12)c1ccccn1,3.16,2.51,–,–,–,–,20,< 10
